Results: ChEMBL document CHEMBL3885861, “Open TG-GATES”

Organism: Rattus norvegicus
Assay: Open TG-GATES - Regimen: Daily Repeat
Assay type: toxicity, organism-based, Sprague-Dawley
Design: regimen Daily Repeat, gender Male, age 6 weeks
Conditions: in vivo, po, route gavage; for APTT / Bas / Eos / Fbg / Hb / Ht / Lym / MCH / MCHC / MCV / Mono / Neu / PT / Plat / RBC / Ret / WBC: tissue Blood; for KIDNEY_L / KIDNEY_R / KIDNEY_TOTAL: tissue Kidney; for LIVER: tissue Liver; for A/G / ALP / ALT / AST / BUN / CRE / Ca / Cl / DBIL / GLC / IP / K / LDH / Na / PL / RALB / TBIL / TC / TG / TP / gamma-GTP: tissue Plasma
[1] = 30 mg/kg, 72 h, dose level Middle, time 3 day
[2] = 30 mg/kg, […], dose level Middle, time 7 day
[3] = 30 mg/kg, […], dose level Middle, time 14 day
[4] = 30 mg/kg, […], dose level Middle, time 28 day
[5] = 100 mg/kg, 72 h, dose level High, time 3 day
[6] = 100 mg/kg, […], dose level High, time 7 day
[7] = 100 mg/kg, […], dose level High, time 14 day
[8] = 100 mg/kg, […], dose level High, time 28 day

NC(=O)N/N=C/c1ccc([N+](=O)[O-])o1 [NITROFURAZONE]
TERMINAL_BW [1]: 221 g
APTT [1]: 15.2 s
Bas [1]: 0%
Eos [1]: 0.8%
Fbg [1]: 285 mg/dL
Hb [1]: 12.7 g/dL
Ht [1]: 38.3%
Lym [1]: 78.8%
MCH [1]: 21.6 pg
MCHC [1]: 33.2%
MCV [1]: 65 fL
Mono [1]: 3.2%
Neu [1]: 16.6%
PT [1]: 14.2 s
Plat [1]: 119.4 x10_4/uL
RBC [1]: 589.8 x10_4/ul
Ret [1]: 8.5%
WBC [1]: 86.5 x10_2/uL
KIDNEY_L [1]: 1 g
KIDNEY_R [1]: 0.9 g
KIDNEY_TOTAL [1]: 1.9 g
LIVER [1]: 11.3 g
A/G [1]: 0.9
ALP [1]: 1653.2 IU/L
ALT [1]: 46.2 IU/L
AST [1]: 70 IU/L
BUN [1]: 15.4 mg/dL
CRE [1]: 0.2 mg/dL
Ca [1]: 11.4 mg/dL
Cl [1]: 104.2 meq/L
DBIL [1]: 0.016 mg/dL
GLC [1]: 182 mg/dL
IP [1]: 8 mg/dL
K [1]: 4.4 meq/L
LDH [1]: 113.2 IU/L
Na [1]: 140.6 meq/L
PL [1]: 164.4 mg/dL
RALB [1]: 2.5 g/dL
TBIL [1]: 0.048 mg/dL
TC [1]: 91.4 mg/dL
TG [1]: 98.6 mg/dL
TP [1]: 5.5 g/dL
gamma-GTP [1]: 1 IU/L
TERMINAL_BW [2]: 259.6 g
TERMINAL_BW [3]: 325.5 g
TERMINAL_BW [4]: 410.1 g
APTT [2]: 16.5 s
Bas [2]: 0%
Eos [2]: 1%
Fbg [2]: 267 mg/dL
Hb [2]: 13.2 g/dL
Ht [2]: 39.5%
Lym [2]: 76%
MCH [2]: 21.1 pg
MCHC [2]: 33.5%
MCV [2]: 63.1 fL
Mono [2]: 2.6%
Neu [2]: 20.2%
PT [2]: 14.3 s
Plat [2]: 120.3 x10_4/uL
RBC [2]: 625.8 x10_4/ul
Ret [2]: 7.3%
WBC [2]: 103.6 x10_2/uL
APTT [3]: 14.3 s
Bas [3]: 0%
Eos [3]: 0.8%
Fbg [3]: 308.8 mg/dL
Hb [3]: 13.5 g/dL
Ht [3]: 41.1%
Lym [3]: 81.8%
MCH [3]: 20.8 pg
MCHC [3]: 32.9%
MCV [3]: 63.2 fL
Mono [3]: 2.4%
Neu [3]: 14.2%
PT [3]: 14.4 s
Plat [3]: 117.9 x10_4/uL
RBC [3]: 650.8 x10_4/ul
Ret [3]: 6.1%
WBC [3]: 78.6 x10_2/uL
APTT [4]: 15.7 s
Bas [4]: 0.2%
Eos [4]: 1%
Fbg [4]: 294 mg/dL
Hb [4]: 14.3 g/dL
Ht [4]: 42.2%
Lym [4]: 82.8%
MCH [4]: 19.7 pg
MCHC [4]: 33.8%
MCV [4]: 58.2 fL
Mono [4]: 2%
Neu [4]: 13.6%
PT [4]: 14.3 s
Plat [4]: 99 x10_4/uL
RBC [4]: 727.8 x10_4/ul
Ret [4]: 4.2%
WBC [4]: 114.5 x10_2/uL
KIDNEY_L [2]: 1.1 g
KIDNEY_R [2]: 1.2 g
KIDNEY_TOTAL [2]: 2.3 g
KIDNEY_L [3]: 1.3 g
KIDNEY_R [3]: 1.3 g
KIDNEY_TOTAL [3]: 2.6 g
KIDNEY_L [4]: 1.6 g
KIDNEY_R [4]: 1.6 g
KIDNEY_TOTAL [4]: 3.3 g
LIVER [2]: 13.3 g
LIVER [3]: 17 g
LIVER [4]: 19 g
A/G [2]: 0.8
ALP [2]: 1619 IU/L
ALT [2]: 41 IU/L
AST [2]: 62.6 IU/L
BUN [2]: 13.8 mg/dL
CRE [2]: 0.2 mg/dL
Ca [2]: 11.2 mg/dL
Cl [2]: 103.6 meq/L
DBIL [2]: 0.016 mg/dL
GLC [2]: 181.8 mg/dL
IP [2]: 7.7 mg/dL
K [2]: 3.8 meq/L
LDH [2]: 90.2 IU/L
Na [2]: 141.8 meq/L
PL [2]: 155.8 mg/dL
RALB [2]: 2.6 g/dL
TBIL [2]: 0.048 mg/dL
TC [2]: 77.6 mg/dL
TG [2]: 117.4 mg/dL
TP [2]: 5.8 g/dL
gamma-GTP [2]: 1 IU/L
A/G [3]: 0.8
ALP [3]: 1501.8 IU/L
ALT [3]: 41.8 IU/L
AST [3]: 63.6 IU/L
BUN [3]: 18 mg/dL
CRE [3]: 0.2 mg/dL
Ca [3]: 11.1 mg/dL
Cl [3]: 103.6 meq/L
DBIL [3]: 0.014 mg/dL
GLC [3]: 193.4 mg/dL
IP [3]: 7.7 mg/dL
K [3]: 4.1 meq/L
LDH [3]: 89.8 IU/L
Na [3]: 142.2 meq/L
PL [3]: 169.2 mg/dL
RALB [3]: 2.8 g/dL
TBIL [3]: 0.05 mg/dL
TC [3]: 87.2 mg/dL
TG [3]: 107.6 mg/dL
TP [3]: 6.1 g/dL
gamma-GTP [3]: 1 IU/L
A/G [4]: 0.8
ALP [4]: 1102.6 IU/L
ALT [4]: 38 IU/L
AST [4]: 56.4 IU/L
BUN [4]: 16.4 mg/dL
CRE [4]: 0.2 mg/dL
Ca [4]: 10.7 mg/dL
Cl [4]: 103.2 meq/L
DBIL [4]: 0.012 mg/dL
GLC [4]: 182.4 mg/dL
IP [4]: 7.1 mg/dL
K [4]: 3.8 meq/L
LDH [4]: 43.2 IU/L
Na [4]: 142.8 meq/L
PL [4]: 163.8 mg/dL
RALB [4]: 2.8 g/dL
TBIL [4]: 0.076 mg/dL
TC [4]: 80.2 mg/dL
TG [4]: 104.4 mg/dL
TP [4]: 6.1 g/dL
gamma-GTP [4]: 1 IU/L
TERMINAL_BW [5]: 206.6 g
APTT [5]: 15 s
Bas [5]: 0%
Eos [5]: 1%
Fbg [5]: 297 mg/dL
Hb [5]: 12.7 g/dL
Ht [5]: 38.8%
Lym [5]: 83.6%
MCH [5]: 21.5 pg
MCHC [5]: 32.8%
MCV [5]: 65.6 fL
Mono [5]: 2.8%
Neu [5]: 11.6%
PT [5]: 14.6 s
Plat [5]: 102.7 x10_4/uL
RBC [5]: 593 x10_4/ul
Ret [5]: 7%
WBC [5]: 86.2 x10_2/uL
KIDNEY_L [5]: 0.9 g
KIDNEY_R [5]: 1 g
KIDNEY_TOTAL [5]: 1.9 g
LIVER [5]: 10.9 g
A/G [5]: 0.9
ALP [5]: 1305.8 IU/L
ALT [5]: 41.4 IU/L
AST [5]: 71.4 IU/L
BUN [5]: 16 mg/dL
CRE [5]: 0.2 mg/dL
Ca [5]: 11 mg/dL
Cl [5]: 104 meq/L
DBIL [5]: 0.016 mg/dL
GLC [5]: 176.4 mg/dL
IP [5]: 7.8 mg/dL
K [5]: 4.5 meq/L
LDH [5]: 67.6 IU/L
Na [5]: 141 meq/L
PL [5]: 154.8 mg/dL
RALB [5]: 2.6 g/dL
TBIL [5]: 0.068 mg/dL
TC [5]: 89.6 mg/dL
TG [5]: 66.8 mg/dL
TP [5]: 5.5 g/dL
gamma-GTP [5]: 1 IU/L
TERMINAL_BW [6]: 222.5 g
TERMINAL_BW [7]: 223.7 g
TERMINAL_BW [8]: 311.4 g
APTT [6]: 16 s
Bas [6]: 0%
Eos [6]: 0.8%
Fbg [6]: 271.8 mg/dL
Hb [6]: 13.2 g/dL
Ht [6]: 38.8%
Lym [6]: 85.2%
MCH [6]: 20.6 pg
MCHC [6]: 34.1%
MCV [6]: 60.3 fL
Mono [6]: 2.5%
Neu [6]: 10.2%
PT [6]: 14.5 s
Plat [6]: 106.2 x10_4/uL
RBC [6]: 643 x10_4/ul
Ret [6]: 5.5%
WBC [6]: 113.2 x10_2/uL
APTT [7]: 15.4 s
Bas [7]: 0.2%
Eos [7]: 0.8%
Fbg [7]: 318.8 mg/dL
Hb [7]: 14.1 g/dL
Ht [7]: 41.5%
Lym [7]: 86.8%
MCH [7]: 19.7 pg
MCHC [7]: 34%
MCV [7]: 57.9 fL
Mono [7]: 2.6%
Neu [7]: 8.8%
PT [7]: 15.1 s
Plat [7]: 121 x10_4/uL
RBC [7]: 720 x10_4/ul
Ret [7]: 3.8%
WBC [7]: 108.8 x10_2/uL
APTT [8]: 16.6 s
Bas [8]: 0.2%
Eos [8]: 1%
Fbg [8]: 368.6 mg/dL
Hb [8]: 13.9 g/dL
Ht [8]: 41.3%
Lym [8]: 85.8%
MCH [8]: 19.4 pg
MCHC [8]: 33.5%
MCV [8]: 57.9 fL
Mono [8]: 2.8%
Neu [8]: 9.2%
PT [8]: 14.3 s
Plat [8]: 107.6 x10_4/uL
RBC [8]: 714.8 x10_4/ul
Ret [8]: 3.8%
WBC [8]: 116.7 x10_2/uL
KIDNEY_L [6]: 1.1 g
KIDNEY_R [6]: 1 g
KIDNEY_TOTAL [6]: 2.1 g
KIDNEY_L [7]: 1.1 g
KIDNEY_R [7]: 1.1 g
KIDNEY_TOTAL [7]: 2.2 g
KIDNEY_L [8]: 1.5 g
KIDNEY_R [8]: 1.5 g
KIDNEY_TOTAL [8]: 3 g
LIVER [6]: 11.4 g
LIVER [7]: 10.8 g
LIVER [8]: 14.2 g
A/G [6]: 0.9
ALP [6]: 1211 IU/L
ALT [6]: 32.2 IU/L
AST [6]: 56.8 IU/L
BUN [6]: 14 mg/dL
CRE [6]: 0.2 mg/dL
Ca [6]: 11 mg/dL
Cl [6]: 102.5 meq/L
DBIL [6]: 0.015 mg/dL
GLC [6]: 162.2 mg/dL
IP [6]: 7.4 mg/dL
K [6]: 3.9 meq/L
LDH [6]: 55 IU/L
Na [6]: 141.2 meq/L
PL [6]: 146.8 mg/dL
RALB [6]: 2.6 g/dL
TBIL [6]: 0.055 mg/dL
TC [6]: 87 mg/dL
TG [6]: 39.5 mg/dL
TP [6]: 5.6 g/dL
gamma-GTP [6]: 1 IU/L
A/G [7]: 0.9
ALP [7]: 975.2 IU/L
ALT [7]: 27.2 IU/L
AST [7]: 86.4 IU/L
BUN [7]: 17.8 mg/dL
CRE [7]: 0.2 mg/dL
Ca [7]: 10.5 mg/dL
Cl [7]: 104.8 meq/L
DBIL [7]: 0.02 mg/dL
GLC [7]: 150.2 mg/dL
IP [7]: 7.9 mg/dL
K [7]: 3.7 meq/L
LDH [7]: 99.2 IU/L
Na [7]: 144 meq/L
PL [7]: 138.6 mg/dL
RALB [7]: 2.7 g/dL
TBIL [7]: 0.078 mg/dL
TC [7]: 92.6 mg/dL
TG [7]: 34.6 mg/dL
TP [7]: 5.9 g/dL
gamma-GTP [7]: 1.2 IU/L
A/G [8]: 0.8
ALP [8]: 579.8 IU/L
ALT [8]: 21 IU/L
AST [8]: 58.6 IU/L
BUN [8]: 14.8 mg/dL
CRE [8]: 0.2 mg/dL
Ca [8]: 10 mg/dL
Cl [8]: 103.4 meq/L
DBIL [8]: 0.016 mg/dL
GLC [8]: 144.6 mg/dL
IP [8]: 7.5 mg/dL
K [8]: 3.6 meq/L
LDH [8]: 51.2 IU/L
Na [8]: 144.6 meq/L
PL [8]: 149.6 mg/dL
RALB [8]: 2.8 g/dL
TBIL [8]: 0.096 mg/dL
TC [8]: 104.2 mg/dL
TG [8]: 36 mg/dL
TP [8]: 6.2 g/dL
gamma-GTP [8]: 1.2 IU/L
